Where two headings read alike, the source gives them in different places. Marks after values point to notes of the source that are not given here.
What was measured:
[1] = Loading efficiency of small molecules in microarrayed EVA films; type: physicochemical
Description: To embed molecules into the polymer matrix, they were first dissolved in an appropriate solvent, depending on their respective hydrophobicity. A stock solution of azide (99%, Acros), a hydrophilic molecule, was dissolved in dH2O whereas Nutlin-3a (EMD Chemicals, Gibbstown, N.J.) and camptothecin (Sigma), both hydrophobic molecules, were dissolved in DMSO. Dissolved drugs were then added to 5% EVA at a 1:10 ratio of solvent:EVA. Prior to printing, polymer mixtures were vortexed for 30 s and then homogenized for 1 min before being loaded onto the source plate of the robotic mini-arrayer.
To determine the loading efficiency of factors, polymer formulations were made as described above. Films derived from 100 μl EVA loaded with factors were then made on glass coverslips and allowed to dry overnight under vacuum. Films were removed from the glass substrates and weighed. Films were washed briefly with PBS before being placed in 1 ml toluene to dissolve the polymer. Samples were then analyzed using a Nanodrop-ND-1000 spectrophotometer. Standard curves were generated for each factor, and loading efficiency was calculated as the percent of drug embedded in the polymer compared to the theoretical drug concentration.

[2] = Drug release from microarrayed drug-loaded EVA islands; type: physicochemical; conditions: release from drug-loaded EVA microarray, followed by steady release
Description: For drug release studies, polymer formulations were again made as described above. Glass coverslips were weighed prior to printing. Arrays consisting of 900 drug-loaded polymer islands were manufactured and allowed to dry overnight. Samples were weighed and placed in 3 ml of PBS containing 0.1% Tween-80 at 37° C. with gentle agitation. Samples were taken at the specified times and analyzed.

HCT116 cells [3] = assay: HCT116 proliferation (BrdU) on drug-eluting cellular microarray; type: cell-based, human; conditions: for Emax / drug sensitivity (1/D50): non-proliferation, 24 h
Source text: (§1) Glass coverslips were cleaned in an oxygen plasma etcher (Terra Universal, Fullerton, Calif.). Arrays of isolated spots of (3-Aminopropyl) trimethoxysilane (NH2-terminated silane) (Sigma-Aldrich, St. Louis, Mo.) were robotically printed on clean coverslips using a Calligrapher Miniarrayer printer (Bio-Rad, Hercules, Calif.) with 1500 μm center to center distances and a pin diameter of 400 μm. The silane printed coverslips were then coated with 175 Å of titanium (Ti; 99.995% pure) and 225 Å of gold (Au; 99.999% pure) (Williams Advanced Materials, Buffalo, N.Y.). Following coating, gold-coated arrays were sonicated to remove gold from the amine spots, exposing NH2-terminated silane islands. The coverslips were incubated with 0.1 M, methyl-terminated alkanethiol (CH3(CH2)11SH) (Sigma) for 30 min. Substrates were incubated in 10% Pluronic® F-127 (BASF Corporation, USA) for 3 h and 1% heat-denatured BSA for 30 min to create a non-fouling surface around the adhesive amine islands. Three layers of the drug-loaded ethylene vinyl acetate (EVA) polymers were printed over the amine islands and placed in a desiccator between each successive layer. Poly-d-lysine (0.1%) was over-spotted onto the EVA films to promote cell attachment. […] Schematic diagrams of the arrays are illustrated in FIGS. 6A and 6B.
(§2) HCT116 (p53+/+, ATCC, Manassas, Va.) human colon cancer cells were maintained in McCoy's 5a Medium supplemented with 10% fetal bovine serum (Thermo Scientific, Waltham, Mass.), 1% penicillin G and 1% streptomycin (Thermo Scientific). The cells were cultured at 37° C. in a humidified incubator containing 5% CO2. Following microarray fabrication, 100,000 HCT116 cells were seeded over each array in 3 ml serum-free media and allowed to incubate on a rocking plate at room temperature until cell attachment to the EVA islands occurred, with minimal attachment to background, typically 10-15 min. Microarrays were gently washed in PBS, placed in a 35 mm petri dish with complete media, and placed in an incubator for 24-72 h.
(§3) Camptothecin-loaded microarrays were stained with Annexin V (BD Pharminigen), fixed in 4% paraformaldehyde, and placed in PBS with Hoechst dye 34580 (Invitrogen, USA) for 30 min. Azide-loaded microarrays were fixed with 4% paraformaldehyde and incubated with PBS containing Hoechst 34580 dye. Finally, nutlin-3a-loaded microarrays were fixed with 4% paraformaldehyde, stained with BrdU (BD Bioscience, San Jose, Calif.), and incubated in PBS containing Hoechst 34580 dye. All arrays were mounted with Fluoro-Gel (Electron Microscope Sciences, Hatfield, Pa.) and imaged using an Axiovert 200M microscope (Carl Zeiss, Oberkochen, Germany). Analysis was performed with Axiovision (Carl Zeiss, Oberkochen, Germany) by quantifying, in each drug-eluting island, the area of fluorescence and reported as relative fluorescence intensity (RFI).
(§4) Proliferation values were normalized to control (0 μM drug). Values for concentration-response curves were transformed to non-proliferation by subtracting the normalized value from 100%. Curve fitting analysis was performed to obtain Emax and D50 values using the equation E=E0+(Emax×D)/(D+D50) where E is the effect (either non-proliferation or apoptosis), E0 is the initial value, Emax is the maximum effect, D is the dose, and D50 is the dose at which a 50% maximum effect (Emax) is observed^34. Drug sensitivity values were obtained by taking the inverse of the D50 and multiplying by 100. Those values marked with “#” indicate that the r^2 value of the curve-fit was below 0.65. N/A values are present where negative parameters were obtained.
(§5) Hyperbolic curve fits were generated for the dose responses from a first drug in the presence of a fixed amount of a second drug for each combination (Tables 2 and 3, below). […]

HCT116 cells [4] = assay: HCT116 apoptosis (annexin V) on drug-eluting cellular microarray; type: cell-based, human; conditions: for drug sensitivity (1/D50) / Emax: apoptosis; for Emax: Homo sapiens, HCT-116, Camptothecin dose response
Source text: as §1, §2, §3, §4, §5

CA2 CCSCs = assay: CA2 patient-derived CCSC proliferation on drug-eluting microarray; type: cell-based, human; conditions: for proliferation with increasing drug exposure: CA2 cells, single drug; for Emax / drug sensitivity (1/D50): non-proliferation
Description: ALDH^high spheres were generated from tumor cells obtained from patients with colon cancer. Isolated cells were cultured in serum-free media as previously described^14 (reference 14 is hereby incorporated by reference herein with respect to methods for culturing cells in serum-free media). Using these cultures, adherent cell growth was established with 0.1% gelatin (Millipore) coatings on tissue culture plates (TPP, Switzerland) and the cells were serially propagated. For CA1 and CA2 cells, 25,000 cells were tested per array. Cells were seeded in PBS with 0.1% gelatin and treated identically to the microarrays with HCT116.
as §3, §4

[5] = Nutlin dose response, 2nd drug CPT 1 μM
[6] = Nutlin dose response, 2nd drug CPT 10 μM
[7] = Nutlin dose response, 2nd drug CPT 50 μM
[8] = Nutlin dose response, 2nd drug CPT 0 μM, CA2
[9] = Nutlin dose response, 2nd drug CPT 1 μM, CA2
[10] = Nutlin dose response, 2nd drug CPT 10 μM, CA2
[11] = Nutlin dose response, 2nd drug CPT 50 μM, CA2
[12] = Camptothecin dose response, 2nd drug NUT 0 μM
[13] = Camptothecin dose response, 2nd drug NUT 1 μM
[14] = Camptothecin dose response, 2nd drug NUT 25 μM

COc1ccc(C2=N[C@@H](c3ccc(Cl)cc3)[C@@H](c3ccc(Cl)cc3)N2C(=O)N2CCNC(=O)C2)c(OC(C)C)c1 [Nutlin-3a]
Loading efficiency (%) [1]: 81 +/− 7%
burst release duration [2]: approximately 8 h
increase in sensitivity to nutlin-3a on addition of camptothecin (HCT116 cells [3]; 50 μM CPT compared to 0 μM CPT, HCT116 proliferation): over 5 fold
cell cycle arrest (ratio of non-proliferating cells) on single-drug microarray (HCT116 cells [3]; HCT116, 24 h): dose-dependent cell cycle arrest
Emax (HCT116 cells [3]; Nutlin dose response, 2nd drug CPT 0 μM): 108 +/− 110
drug sensitivity (1/D50) (HCT116 cells [3]; Nutlin dose response, 2nd drug CPT 0 μM, listed as Nutlin): 3.00 +/− 0.49*
drug sensitivity (1/D50) (HCT116 cells [3]; Nutlin dose response, 2nd drug CPT 0 μM, listed as nutlin-3a): 3.0
Emax (HCT116 cells [3]; [5]): 96.1 +/− 25
drug sensitivity (1/D50) (HCT116 cells [3]; [5]): 1.78 +/− 1.7
Emax (HCT116 cells [3]; [6]): 86.5 +/− 19
drug sensitivity (1/D50) (HCT116 cells [3]; [6]): 2.97 +/− 3.7
Emax (HCT116 cells [3]; [7]): 81.4 +/− 1.9
drug sensitivity (1/D50) (HCT116 cells [3]; Nutlin dose response, 2nd drug CPT 50 μM, listed as Nutlin): 19.6 +/− 12
drug sensitivity (1/D50) (HCT116 cells [3]; Nutlin dose response, 2nd drug CPT 50 μM, listed as nutlin-3a): 19.6
drug sensitivity (1/D50) (HCT116 cells [4]; [6]): 2.48 +/− 0.83
drug sensitivity (1/D50) (HCT116 cells [4]; [7]): 143 +/− 98
effect on proportion of HCT116 cells that underwent apoptosis (HCT116 cells [4]; administered alone, microarray): no effect
proportion of HCT116 cells that underwent apoptosis (HCT116 cells [4]; nutlin-3a alone, 125 μM loading): 5.6%
decrease in Emax of the concentration response curve to nutlin-3a (CA2 CCSCs; 50 μM camptothecin present vs nutlin-3a alone, CA2, not significant (p=0.097)): 53%
proliferation with increasing drug exposure (CA2 CCSCs): decreasing proliferation
Emax (CA2 CCSCs; [8]): 73.3 +/− 9.3*
drug sensitivity (1/D50) (CA2 CCSCs; [8]): 171 +/− 49 ^
Emax (CA2 CCSCs; [9]): 43.8 +/− 11
drug sensitivity (1/D50) (CA2 CCSCs; [9]): 189 +/− 328 ^
Emax (CA2 CCSCs; [10]): 57.0 +/− 39
drug sensitivity (1/D50) (CA2 CCSCs; [10]): 0.95 +/− 4.6^#
Emax (CA2 CCSCs; [11]): 34.1 +/− 9.3*
drug sensitivity (1/D50) (CA2 CCSCs; [11]): 303 +/− 260 ^

CC[C@@]1(O)C(=O)OCc2c1cc1n(c2=O)Cc2cc3ccccc3nc2-1 [Camptothecin]
Loading efficiency (%) [1]: 92 +/− 3%
burst release duration [2]: approximately 24 h
increase in sensitivity to camptothecin in presence of nutlin-3a (HCT116 cells [3]; 125 μM nutlin compared to 0 μM nutlin, HCT116 proliferation): over 16 fold
drug sensitivity (1/D50) (HCT116 cells [3]; [12]): 4.83 +/− 0.54*
drug sensitivity (1/D50) (HCT116 cells [3]; Camptothecin dose response, 2nd drug NUT 0 μM, listed as camptothecin): 4.83
drug sensitivity (1/D50) (HCT116 cells [3]; [13]): 5.65 +/− 5.2
drug sensitivity (1/D50) (HCT116 cells [3]; [14]): 12.1 +/− 18
drug sensitivity (1/D50) (HCT116 cells [3]; Camptothecin dose response, 2nd drug NUT 125 μM): 78.1 +/− 26*
drug sensitivity (1/D50) (HCT116 cells [3]; Camptothecin dose response, 2nd drug NUT 125 μM, listed as camptothecin): 78.1
Emax (HCT116 cells [3]; Homo sapiens, HCT-116, 24 h, Camptothecin dose response, 2nd drug NUT 0 μM, read-out: Emax): 86.4%
Emax (HCT116 cells [3]; Homo sapiens, HCT-116, 24 h, Camptothecin dose response, 2nd drug NUT 1 μM, read-out: Emax): 88.8%
Emax (HCT116 cells [3]; Homo sapiens, HCT-116, 24 h, Camptothecin dose response, 2nd drug NUT 25 μM, read-out: Emax): 86.3%
Emax (HCT116 cells [3]; Homo sapiens, HCT-116, 24 h, Camptothecin dose response, 2nd drug NUT 125 μM, read-out: Emax): 79.1%
decrease in the Emax of the camptothecin concentration response curve (HCT116 cells [4]; 125 μM nutlin-3a compared to 0 μM nutlin-3a, HCT116 apoptosis): 65%
proportion of HCT116 cells undergoing apoptosis on single-drug microarray (HCT116 cells [4]; 72 h incubation): greater with increasing concentrations
drug sensitivity (1/D50) (HCT116 cells [4]; [12]): 2.53 +/− 1.1
drug sensitivity (1/D50) (HCT116 cells [4]; [13]): 83.3 +/− 76
drug sensitivity (1/D50) (HCT116 cells [4]; [14]): 15.9 +/− 2.8
Emax (HCT116 cells [4]; 2nd drug NUT 0 μM): 21.6%
Emax (HCT116 cells [4]; 2nd drug NUT 1 μM): 12.8%
Emax (HCT116 cells [4]; 2nd drug NUT 25 μM): 9.31%
Emax (HCT116 cells [4]; 2nd drug NUT 125 μM): 7.46%
proliferation with increasing drug exposure (CA2 CCSCs): decreasing proliferation
drug sensitivity (1/D50) (CA2 CCSCs; Camptothecin dose response, 2nd drug NUT 0 μM, CA2): 133 +/− 5.3* ^
drug sensitivity (1/D50) (CA2 CCSCs; Camptothecin dose response, 2nd drug NUT 1 μM, CA2): 1.60 +/− 7.9* ^
drug sensitivity (1/D50) (CA2 CCSCs; Camptothecin dose response, 2nd drug NUT 125 μM, CA2): 0.00 +/− 1.01^#
Emax (CA2 CCSCs; Homo sapiens, Camptothecin dose response, 2nd drug NUT 0 μM, CA2, read-out: Emax): 46.6%
Emax (CA2 CCSCs; Homo sapiens, Camptothecin dose response, 2nd drug NUT 1 μM, CA2, read-out: Emax): 52.3%
Emax (CA2 CCSCs; Homo sapiens, Camptothecin dose response, 2nd drug NUT 25 μM, CA2, read-out: Emax): 43.9%

Source: patent publication US9557319B2, “Cell-based arrays, methods of making, and methods of using” (University of Florida Research Foundation, Inc., priority 2010, dated 2017)
